Data as given in PubChem BioAssay (NCI).
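48-hour exposure; five concentrations; linearly interpolated endpoints. GI50 is the concentration that inhibits growth by half. The concentration for full growth arrest is given as TGI.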

Columns and labels:
Test in all cases: inhibition of tumour cell growth, NCI panel, 48 h
SK-MEL-2 melanoma = system: SK-MEL-2 melanoma
T-47D breast = system: T-47D breast
SF-268 CNS = system: SF-268 CNS
786-0 renal = system: 786-0 renal
UACC-257 melanoma = system: UACC-257 melanoma
PC-3 prostate = system: PC-3 prostate
ACHN renal = system: ACHN renal
OVCAR-5 ovarian = system: OVCAR-5 ovarian
RXF 393 renal = system: RXF 393 renal
COLO 205 colon = system: COLO 205 colon
NCI-H522 lung = system: NCI-H522 lung
KM12 colon = system: KM12 colon
IGROV1 ovarian = system: IGROV1 ovarian
BT-549 breast = system: BT-549 breast
EKVX NSCLC = system: EKVX NSCLC
HOP-92 NSCLC = system: HOP-92 NSCLC
UO-31 renal = system: UO-31 renal
M14 melanoma = system: M14 melanoma
NCI-H226 lung = system: NCI-H226 lung
OVCAR-8 ovarian = system: OVCAR-8 ovarian
CAKI-1 renal = system: CAKI-1 renal
OVCAR-4 ovarian = system: OVCAR-4 ovarian
MDA-MB-435 = system: MDA-MB-435
MDA-MB-231 breast = system: MDA-MB-231 breast
UACC-62 melanoma = system: UACC-62 melanoma
SNB-19 CNS = system: SNB-19 CNS
SK-MEL-28 melanoma = system: SK-MEL-28 melanoma
HCT-15 colon = system: HCT-15 colon
RPMI-8226 leukemia = system: RPMI-8226 leukemia
SNB-75 CNS = system: SNB-75 CNS
CCRF-CEM leukemia = system: CCRF-CEM leukemia
SW-620 colon = system: SW-620 colon
U251 CNS = system: U251 CNS
SK-OV-3 ovarian = system: SK-OV-3 ovarian
MOLT-4 leukemia = system: MOLT-4 leukemia
HT29 colon = system: HT29 colon
DU-145 prostate = system: DU-145 prostate
HL-60(TB) leukemia = system: HL-60(TB) leukemia
SR leukemia = system: SR leukemia
NCI-H460 lung = system: NCI-H460 lung
MDA-N = system: MDA-N
NCI-H23 lung = system: NCI-H23 lung
LOX IMVI melanoma = system: LOX IMVI melanoma
OVCAR-3 ovarian = system: OVCAR-3 ovarian
MCF7 breast = system: MCF7 breast
TK-10 renal = system: TK-10 renal
HOP-62 NSCLC = system: HOP-62 NSCLC
NCI/ADR-RES ovarian = system: NCI/ADR-RES ovarian
SK-MEL-5 melanoma = system: SK-MEL-5 melanoma
A549 NSCLC = system: A549 NSCLC
A498 renal = system: A498 renal
SF-539 CNS = system: SF-539 CNS
HCT-116 colon = system: HCT-116 colon
HCC-2998 colon = system: HCC-2998 colon
SN12C renal = system: SN12C renal
SF-295 CNS = system: SF-295 CNS
HS 578T breast = system: HS 578T breast
K-562 leukemia = system: K-562 leukemia

CC1CC[P+](c2ccccc2)(c2ccccc2)c2c1ccc1ccccc21 (stereo not given)
TGI (SK-MEL-2 melanoma): 7.13 µM | TGI (T-47D breast): > 71.6 µM | TGI (SF-268 CNS): > 100 µM | GI50 (786-0 renal): 11 µM | TGI (786-0 renal): 43.4 µM | TGI (UACC-257 melanoma): 13.9 µM | TGI (PC-3 prostate): 7.34 µM | TGI (ACHN renal): > 81.5 µM | TGI (OVCAR-5 ovarian): > 100 µM | TGI (RXF 393 renal): 43.5 µM | GI50 (COLO 205 colon): 2.02 µM | TGI (NCI-H522 lung): 9.87 µM | TGI (KM12 colon): 14.8 µM | GI50 (IGROV1 ovarian): 4.42 µM | TGI (IGROV1 ovarian): 21.2 µM | TGI (BT-549 breast): 6.68 µM | GI50 (EKVX NSCLC): 92 µM | TGI (EKVX NSCLC): > 100 µM | TGI (HOP-92 NSCLC): 5.43 µM | TGI (UO-31 renal): > 68.3 µM | TGI (M14 melanoma): 41.9 µM | GI50 (NCI-H226 lung): 8.48 µM | TGI (NCI-H226 lung): 62.8 µM | TGI (OVCAR-8 ovarian): 21.1 µM | TGI (CAKI-1 renal): 32.6 µM | TGI (OVCAR-4 ovarian): > 100 µM | TGI (MDA-MB-435): 16.4 µM | GI50 (MDA-MB-231 breast): 8.98 µM | TGI (MDA-MB-231 breast): > 45 µM | TGI (UACC-62 melanoma): 20.1 µM | TGI (SNB-19 CNS): 97.4 µM | GI50 (SK-MEL-28 melanoma): 13 µM | TGI (SK-MEL-28 melanoma): > 73.4 µM | TGI (HCT-15 colon): > 100 µM | GI50 (RPMI-8226 leukemia): 1.63 µM | TGI (RPMI-8226 leukemia): 11.6 µM | TGI (SNB-75 CNS): 6.05 µM | TGI (CCRF-CEM leukemia): 42.1 µM | GI50 (SW-620 colon): 5.95 µM | TGI (SW-620 colon): > 100 µM | GI50 (U251 CNS): 2.85 µM | TGI (U251 CNS): > 100 µM | GI50 (SK-OV-3 ovarian): 2.73 µM | TGI (SK-OV-3 ovarian): 16.4 µM | TGI (MOLT-4 leukemia): 37.6 µM | TGI (HT29 colon): 13.9 µM | GI50 (DU-145 prostate): 13.3 µM | TGI (DU-145 prostate): > 100 µM | TGI (HL-60(TB) leukemia): 21.4 µM | GI50 (SR leukemia): 9.65 µM | TGI (SR leukemia): > 100 µM | TGI (NCI-H460 lung): 10.1 µM | GI50 (MDA-N): 2.98 µM | TGI (MDA-N): > 28.3 µM | TGI (NCI-H23 lung): 9.78 µM | TGI (LOX IMVI melanoma): 7.61 µM | GI50 (OVCAR-3 ovarian): 3.09 µM | TGI (OVCAR-3 ovarian): > 58.8 µM | TGI (MCF7 breast): > 100 µM | GI50 (TK-10 renal): 11.4 µM | TGI (TK-10 renal): > 100 µM | GI50 (HOP-62 NSCLC): 11.5 µM | TGI (HOP-62 NSCLC): > 57.5 µM | TGI (NCI/ADR-RES ovarian): > 100 µM | TGI (SK-MEL-5 melanoma): 5.16 µM | TGI (A549 NSCLC): > 100 µM | GI50 (A498 renal): 35.1 µM | TGI (A498 renal): 88.2 µM | TGI (SF-539 CNS): 35.8 µM | TGI (HCT-116 colon): > 39.5 µM | TGI (HCC-2998 colon): 41.9 µM | TGI (SN12C renal): 37.1 µM | TGI (SF-295 CNS): 20.3 µM | TGI (HS 578T breast): 7.66 µM | TGI (K-562 leukemia): 17.8 µM
